Measurements taken from patent EP0075823A2, “Use of basically substituted phenylacetonitriles in the prophylactic treatment of illnesses” (KNOLL AG, priority 1981, dated 1983).

Test system: diabetischer Ratten
Assay: Alloxan-induced diabetes mellitus in rats: prevention of lens and arterial wall calcinosis
Assay type: in vivo, Wistar-Ratten
Conditions: for durch Calcinose von Gefäßwänden verursachte Arterienveränderungen verhindern: attempts with other calcium antagonists, no dose or model details printed
Experimental: Gemäß der Erfindung wird es zum ersten Mal möglich, die Krankheiten vorbeugend bei Warmblütern mit Erfolg medikamentös zu behandeln, wie folgende Versuche zeigen: • Wistar-Ratten im Alter von 2 Monaten erhielten zur Erzeugung eines Diabetes mellitus intravenös 80 mg/kg Alloxan. Nach Zerstörung der Insulin-produzierenden ß-Zellen im Pancreas stieg der Blutzuckerwert bei den Tieren von 100 mg% auf etwa 420 mg%. Dieser Wert blieb während einer Beobachtungszeit von 6 1/2 Monaten praktisch konstant. Während der Beobachtungszeit erhielt ein Teil der Tiere täglich 25 mg/kg Verapamilhydrochlorid mit einer Schlucksonde. Bei den nicht mit Verapamil behandelten Tieren kam es in dieser Zeit bei 63 % der Tiere zu einem völligen Verlust der Transparenz der Augenlinse, während sich bei den behandelten Tieren nur in 4 % der Fälle ein Katarakt bildete.
Ohne Verapamil stieg der Calcium-Gehalt der Linse diabetischer Ratten vom Normalwert nicht-diabetischer Kontrolltiere (= 1,08 (i 0,02)) auf 10,89 (± 0,85) mmol/kg Trockengewicht an. Dagegen verblieb mit Verapamil der mittlere Calcium-Gehalt der Linsen diabetischer Tiere in dem niedrigeren Bereich von 3,46 (± 0,61) mmol/kg Trockengewicht.
-Mit der Verhinderung des Calcium-Anstiegs in den Arterien--Wänden wurden auch die elektronen-optisch - hauptsächlich in der Media - nachweisbaren degenerativen Prozesse verhütet.

## COc1ccc(CCN(C)CCCC(C#N)(c2cc(OC)c(OC)c(OC)c2)C(C)C)cc1OC (stereo not drawn) [Gallopamil, α-ISOpropyl-α-[(N-methyl-N-homoveratryl)--α-aminopropyl]-3,4,5-trimethoxyphenylacetonitril]
General statement that corresponding results can be obtained, no data or dose printed
  Verhütung der diabetischen Linsen-Calcinose und des Calcium-Anstiegs in den Arterien-Wänden: Entsprechende Ergebnisse

## COC(=O)C1=C(C)NC(C)=C(C(=O)OC)C1c1ccccc1[N+](=O)[O-] [Nifedipin]
  durch Calcinose von Gefäßwänden verursachte Arterienveränderungen verhindern: erfolglos

## CCCOCCOC(=O)C1=C(C)NC(C)=C(C(=O)OCCOCCC)C1c1cccc([N+](=O)[O-])c1 [Niludipin]
  durch Calcinose von Gefäßwänden verursachte Arterienveränderungen verhindern: erfolglos

## COc1ccc(CCN(C)CCCC(C#N)(c2ccc(OC)c(OC)c2)C(C)C)cc1OC (stereo not drawn) [Verapamil, α-Isopropyl-α-[(N-methyl-N-homoveratryl)--α-aminopropyl]-3,4-dimethoxyphenylacetonitril]
alloxan-diabetic Wistar rats (80 mg/kg Alloxan i.v.), 25 mg/kg daily by gavage, observation 6 1/2 months, untreated diabetic animals 63 %
  Katarakt (völliger Verlust der Transparenz der Augenlinse), Anteil der Tiere: 4%
alloxan-diabetic rats, 25 mg/kg daily p.o., 6 1/2 months, untreated diabetic 10,89 (± 0,85), non-diabetic controls 1,08
  mittlerer Calcium-Gehalt der Linsen diabetischer Tiere: 3,46 (± 0,61) mmol/kg Trockengewicht
Arterial walls of the same treated diabetic rats, electron microscopy
  elektronen-optisch - hauptsächlich in der Media - nachweisbare degenerative Prozesse: verhütet
Same alloxan-diabetic rats, 25 mg/kg daily p.o., 6 1/2 months
  abnormer Anstieg der Calcium-Werte in der Wand der Aorta und der Arteria mesenterica superior (Darmarterie): verhindert
